What was measured:
Syrian golden hamster [1] = assay: Antidyslipidemic activity in Mesocricetus auratus (Syrian golden hamster) high fat diet-induced dyslipidemic-diabetic model assessed as increase of nonesterfied fatty acid fecal excretion at 500 mg/kg, po qd for 10 days relative to control; assay type: functional, Feces
Syrian golden hamster [2] = assay: Antidyslipidemic activity in Mesocricetus auratus (Syrian golden hamster) high fat diet-induced dyslipidemic-diabetic model assessed as reduction of total cholesterol level in liver at 500 mg/kg, po qd for 10 days relative to control; assay type: functional
Syrian golden hamster [3] = assay: Antidyslipidemic activity in Mesocricetus auratus (Syrian golden hamster) high fat diet-induced dyslipidemic-diabetic model assessed as increase of hexokinase in muscle by measuring […] release per mg of protein at 500 mg/kg, po qd for 10 days relative to control; assay type: functional
Syrian golden hamster [4] = assay: Antidyslipidemic activity in Mesocricetus auratus (Syrian golden hamster) high fat diet-induced dyslipidemic-diabetic model assessed as increase of lipase activity in muscle at 500 mg/kg, po qd for 10 days relative to control; assay type: functional
Syrian golden hamster [5] = assay: Antidyslipidemic activity in Mesocricetus auratus (Syrian golden hamster) high fat diet-induced dyslipidemic-diabetic model assessed as reduction of phospholipid level in liver at 500 mg/kg, po qd for 10 days relative to control; assay type: functional
Syrian golden hamster [6] = assay: Antidyslipidemic activity in Mesocricetus auratus (Syrian golden hamster) high fat diet-induced dyslipidemic-diabetic model assessed as reduction of lipolysis in adipose tissue at 500 mg/kg, po qd for 10 days relative to control; assay type: functional; set-up: scale not given: the % may be the effect or the level left
Syrian golden hamster [7] = assay: Antidyslipidemic activity in Mesocricetus auratus (Syrian golden hamster) high fat diet-induced dyslipidemic-diabetic model assessed as reduction of phospholipid level in muscle at 500 mg/kg, po qd for 10 days relative to control; assay type: functional
Syrian golden hamster [8] = assay: Antidyslipidemic activity in Mesocricetus auratus (Syrian golden hamster) high fat diet-induced dyslipidemic-diabetic model assessed as reduction of triglyceride level in liver at 500 mg/kg, po qd for 10 days relative to control; assay type: functional
Syrian golden hamster [9] = assay: Antidyslipidemic activity in Mesocricetus auratus (Syrian golden hamster) high fat diet-induced dyslipidemic-diabetic model assessed as reduction of triglyceride level in plasma at 500 mg/kg, po qd for 10 days relative to control; assay type: functional
Syrian golden hamster [10] = assay: Antidyslipidemic activity in Mesocricetus auratus (Syrian golden hamster) high fat diet-induced dyslipidemic-diabetic model assessed as increase of cholic acid fecal excretion at 500 mg/kg, po qd for 10 days relative to control; assay type: functional, Feces
Syrian golden hamster [11] = assay: Antidyslipidemic activity in Mesocricetus auratus (Syrian golden hamster) high fat diet-induced dyslipidemic-diabetic model assessed as increase of glycogen phosphorylase in muscle by measuring […] release per mg of protein at 500 mg/kg, po qd for 10 days relative to control; assay type: functional
Syrian golden hamster [12] = assay: Antidyslipidemic activity in Mesocricetus auratus (Syrian golden hamster) high fat diet-induced dyslipidemic-diabetic model assessed as decrease of LHD in muscle by measuring […] oxidation at 500 mg/kg, po qd for 10 days relative to control; assay type: functional
Syrian golden hamster [13] = assay: Antidyslipidemic activity in Mesocricetus auratus (Syrian golden hamster) high fat diet-induced dyslipidemic-diabetic model assessed as increase of glycogen phosphorylase in liver by measuring […] release per mg of protein at 500 mg/kg, po qd for 10 days relative to control; assay type: functional
Syrian golden hamster [14] = assay: Antidyslipidemic activity in Mesocricetus auratus (Syrian golden hamster) high fat diet-induced dyslipidemic-diabetic model assessed as effect on glycogen synthase in liver by measuring sodium pyruvate release at 500 mg/kg, po qd for 10 days relative to control; assay type: functional
Syrian golden hamster [15] = assay: Antidyslipidemic activity in Mesocricetus auratus (Syrian golden hamster) high fat diet-induced dyslipidemic-diabetic model assessed as reduction of total cholesterol level in plasma at 500 mg/kg, po qd for 10 days relative to control; assay type: functional
Syrian golden hamster [16] = assay: Antidyslipidemic activity in Mesocricetus auratus (Syrian golden hamster) high fat diet-induced dyslipidemic-diabetic model assessed as increase of glucose-6-phosphate level in liver at 500 mg/kg, po qd for 10 days relative to control; assay type: functional
Syrian golden hamster [17] = assay: Antidyslipidemic activity in Mesocricetus auratus (Syrian golden hamster) high fat diet-induced dyslipidemic-diabetic model assessed as increase of insulin secretion per ml of plasma at 500 mg/kg, po qd for 10 days relative to control; assay type: functional
Syrian golden hamster [18] = assay: Antidyslipidemic activity in Mesocricetus auratus (Syrian golden hamster) high fat diet-induced dyslipidemic-diabetic model assessed as reduction of nonesterfied fatty acid level in plasma at 500 mg/kg, po qd for 10 days relative to control; assay type: functional
Syrian golden hamster [19] = assay: Antidyslipidemic activity in Mesocricetus auratus (Syrian golden hamster) high fat diet-induced dyslipidemic-diabetic model assessed as reduction of glycerol level in plasma at 500 mg/kg, po qd for 10 days relative to control; assay type: functional
Syrian golden hamster [20] = assay: Antidyslipidemic activity in Mesocricetus auratus (Syrian golden hamster) high fat diet-induced dyslipidemic-diabetic model assessed as decrease of LHD in liver by measuring […] oxidation at 500 mg/kg, po qd for 10 days relative to control; assay type: functional
Syrian golden hamster [21] = assay: Antidyslipidemic activity in Mesocricetus auratus (Syrian golden hamster) high fat diet-induced dyslipidemic-diabetic model assessed as reduction of glucose level in plasma at 500 mg/kg, po qd for 10 days relative to control; assay type: functional
Syrian golden hamster [22] = assay: Antidyslipidemic activity in Mesocricetus auratus (Syrian golden hamster) high fat diet-induced dyslipidemic-diabetic model assessed as reduction of triglyceride level in muscle at 500 mg/kg, po qd for 10 days relative to control; assay type: functional
Syrian golden hamster [23] = assay: Antidyslipidemic activity in Mesocricetus auratus (Syrian golden hamster) high fat diet-induced dyslipidemic-diabetic model assessed as increase of glycogen level in liver at 500 mg/kg, po qd for 10 days relative to control; assay type: functional
Syrian golden hamster [24] = assay: Antidyslipidemic activity in Mesocricetus auratus (Syrian golden hamster) high fat diet-induced dyslipidemic-diabetic model assessed as effect on glycogen synthase in muscle by measuring sodium pyruvate release at 500 mg/kg, po qd for 10 days relative to control; assay type: functional
Syrian golden hamster [25] = assay: Antidyslipidemic activity in Mesocricetus auratus (Syrian golden hamster) high fat diet-induced dyslipidemic-diabetic model assessed as reduction of total cholesterol level in muscle at 500 mg/kg, po qd for 10 days relative to control; assay type: functional
Syrian golden hamster [26] = assay: Antidyslipidemic activity in Mesocricetus auratus (Syrian golden hamster) high fat diet-induced dyslipidemic-diabetic model assessed as increase of cholesterol fecal excretion at 500 mg/kg, po qd for 10 days relative to control; assay type: functional, Feces
Syrian golden hamster [27] = assay: Antidyslipidemic activity in Mesocricetus auratus (Syrian golden hamster) high fat diet-induced dyslipidemic-diabetic model assessed as increase of triglyceride fecal excretion at 500 mg/kg, po qd for 10 days relative to control; assay type: functional, Feces
Syrian golden hamster [28] = assay: Antidyslipidemic activity in Mesocricetus auratus (Syrian golden hamster) high fat diet-induced dyslipidemic-diabetic model assessed as increase of cholesterylesters fecal excretion at 500 mg/kg, po qd for 10 days relative to control; assay type: functional, Feces
Syrian golden hamster [29] = assay: Antidyslipidemic activity in Mesocricetus auratus (Syrian golden hamster) high fat diet-induced dyslipidemic-diabetic model assessed as increase of glucose-6-phosphatase in liver by measuring […] release per mg of protein at 500 mg/kg, po qd for 10 days relative to control; assay type: functional
Syrian golden hamster [30] = assay: Antidyslipidemic activity in Mesocricetus auratus (Syrian golden hamster) high fat diet-induced dyslipidemic-diabetic model assessed as increase of glycogen level in muscle at 500 mg/kg, po qd for 10 days relative to control; assay type: functional
Syrian golden hamster [31] = assay: Antidyslipidemic activity in Mesocricetus auratus (Syrian golden hamster) high fat diet-induced dyslipidemic-diabetic model assessed as increase of lipase activity in liver at 500 mg/kg, po qd for 10 days relative to control; assay type: functional
Syrian golden hamster [32] = assay: Antidyslipidemic activity in Mesocricetus auratus (Syrian golden hamster) high fat diet-induced dyslipidemic-diabetic model assessed as increase of deoxycholic acid fecal excretion at 500 mg/kg, po qd for 10 days relative to control; assay type: functional, Feces
Syrian golden hamster [33] = assay: Antidyslipidemic activity in Mesocricetus auratus (Syrian golden hamster) high fat diet-induced dyslipidemic-diabetic model assessed as increase of glucose-6-phosphate level in muscle at 500 mg/kg, po qd for 10 days relative to control; assay type: functional

Cc1ccc(C)c(OCCCC(C)(C)C(=O)O)c1 [GEMFIBROZIL]
Activity (Syrian golden hamster [1]): 53.79 µmol/g | Activity (Syrian golden hamster [2]): 2.61 mg/g | Activity (Syrian golden hamster [3]): 0.066 µM/min | Activity (Syrian golden hamster [4]): 80% | Activity (Syrian golden hamster [5]): 10.47 mg/g | Activity (Syrian golden hamster [6]): 19% | Activity (Syrian golden hamster [7]): 5.14 mg/g | Activity (Syrian golden hamster [8]): 7.92 mg/g | Activity (Syrian golden hamster [9]): 220.86 mg/dL | Activity (Syrian golden hamster [10]): 65.2 µg/g | Activity (Syrian golden hamster [11]): 36.11 µM/h | Activity (Syrian golden hamster [12]): 21.73 nmol/min/mg | Activity (Syrian golden hamster [13]): 5.6 µM/h | Activity (Syrian golden hamster [14]): 0.057 nmol/min/mg | Activity (Syrian golden hamster [15]): 269.72 mg/dL | Activity (Syrian golden hamster [16]): 0.59 µmol/g | Activity (Syrian golden hamster [17]): 34 uU/ml | Activity (Syrian golden hamster [18]): 1.56 µmol/dL | Activity (Syrian golden hamster [19]): 51.66 mg/dL | Activity (Syrian golden hamster [20]): 3.61 nmol/min/mg | Activity (Syrian golden hamster [21]): 57.57 mg/dL | Activity (Syrian golden hamster [22]): 6.3 mg/g | Activity (Syrian golden hamster [23]): 28.49 mg/g | Activity (Syrian golden hamster [24]): 0.063 nmol/min/mg | Activity (Syrian golden hamster [25]): 1.25 mg/g | Activity (Syrian golden hamster [26]): 858.81 µg/g | Activity (Syrian golden hamster [27]): 960 µg/g | Activity (Syrian golden hamster [28]): 258.79 µg/g | Activity (Syrian golden hamster [29]): 0.345 µM/min | Activity (Syrian golden hamster [30]): 3.6 mg/g | Activity (Syrian golden hamster [31]): 60% | Activity (Syrian golden hamster [32]): 38.48 µg/g | Activity (Syrian golden hamster [33]): 0.2 µmol/g
